Test results reported in US20030162734A1, “Modulation of DENN-MADD expression and interactions for treating neurological disorders” (priority 2001, published 2003).
Entries after “also recorded” stand apart in the source; their conditions may differ.

Legend:
JNK3 = details: cited from earlier work
[1] = tested on: neuronal PC12 cells and sympathetic neurons; details: cited from earlier work
JNK [2] = test: JNK immunoprecipitation in vitro kinase assay (GST-c-Jun substrate) from Aβ-exposed N2A clones; type: cell-based, murine; details: 1 μM CEP11004 with 25 μM Aβ(1-42), 24 h; N2A clones expressing GFP or DENN
Procedure: For kinase assays, cells were exposed to 25 μM Aβ(1-40) in the absence or presence of 1 μM CEP11004 for the specified duration. Cell extracts were prepared, incubated with 5 μl JNK antibody for 4 h at 4° C. and precipitated with 60 μl 50% slurry protein A/G sepharose overnight at 4° C. Immunoprecipitates were washed, then incubated with 1 μg GST-cJun (1-79) and 50 μM ATP in 40 μl for 30 min at 30° C. Reactions were terminated with 40 μl Laemmli buffer, boiled for 4 min, centrifuged and 40 μl was loaded onto 10% SDS-PAGE, transferred to nitrocellulose and probed with phospho-c-Jun (Ser73) antibody.
N2A clones expressing GFP or DENN were exposed to 25 μM Aβ(1-42) either in the absence or presence of 1 μM CEP11004. Previously, inhibitiori of Aβ-induced cell death in neuronal PC12 cells and sympathetic neurons required less than 300 nM CEP1347 (Troy et al., 2001). After 24 h Aβ exposure, JNK was immunoprecipitated from cell extracts and incubated with GST-c-Jun substrate and ATP in an in vitro kinase assay. The reactions were immunoblotted with antibody specific to phosphorylated c-Jun. […] Thus, reduction of cell death and JNK activity by JNK inhibitors in DENN overexpressing cell cultures supports DENN involvement in c-Jun activation and cellular apoptosis.

[3] = tested on: mouse primary hippocampal neurons; test: TUNEL cell death assay in primary hippocampal neurons; type: cell-based; details: for Aβ-induced cell death (TUNEL positive cells): CEP11004 with 25 μM Aβ(1-42), 24 h, Control-AS or DENN-AS treated hippocampal cultures
Procedure: Primary mouse and rat hippocampal neurons were prepared from newborn C57B1/6 mouse or Sprague-Dawley rat pups. Briefly, hippocampi were dissected out, minced and digested with 100 U papain and 0.2 μg/ml DNaseI. Following digestion, cells were 'triturated with fire-polished Pasteur pipets and centrifuged in media containing 20 μg/ml BSA. Cells were plated on collagen-coated or poly-lysine coated plates at a density of 3×10^6 cells/ml in Neurobasal medium with B27 supplement and antibiotics (Life Technologies, Gaithersburg, Md.). One day after plating, cells were exposed to 5 μM cytosine arabinoside for 4 d to kill dividing cells. Experiments were performed after 6-8 days in vitro (DIV).
(§1) (PI) for cell death or GFP and phycoerythrin (PE)-conjugated annexin V for early apoptosis. The percentage of cell death was quantified as those cells expressing GFP and either annexin V or 7-AAD staining relative to total GFP expressing cells. Experiments were performed in triplicate with 10,000 events counted. TUNEL staining was performed according to manufacturer's instructions (Roche).
To assess cell death in neuronal cultures exposed to anti-sense oligonucleotides and Aβ, TUNEL staining was performed (FIG. 9B). […] However, due to the increased TUNEL staining with DENN-AS treated cultures, the overall cell death with Aβ was 10-15% greater in these cultures (FIG. 9C). DENN-AS treatment alone increased cell death by 20%. […] Furthermore, the level of cell death observed with Aβ was abrogated by exposing neuronal cultures to 1 βM CEP11004.

NSC19 cells [4] = test: Annexin V FACS apoptosis assay, NSC19 cells overexpressing DENN or DENN mutants, Aβ(1-40) with or without SB203580; type: cell-based, mouse; details: 10 μM SB203580 with Aβ(1-40)
Source text: In contrast to primary CNS cultures, NSC19 are more readily transfectable and highly responsive to apoptosis (Smirnova et al., 1998; Citron et al, 1997). Cells were maintained in high glucose Dulbecco's Modified Eagle's Medium (DMEM) (GIBCO-BRL/Life Technologies, Rockville, Md.) supplemented with 10% fetal bovine serum (FBS) and 1% streptomycin/penicillin. Neuro2A cells (CCL-131), C0S7 (CRL-1651) and human embryonic kidney 293 (CRL-1573) cells were acquired from ATCC. Murine neuroblastoma Neuro2A (N2A) were grown in MEM supplemented with 10% FBS, while COS7 and 293 were maintained in DMEM supplemented with 10% FBS. Cells were plated (5 ×10^5 cells/ml) in 35-mm dishes and transfected with 1 μg total DNA using Effectene or SuperFect (Qiagen) as described by the manufacturer. […]
Cells were analyzed by fluorescence-activated cell sorting (FACS) analysis on a FACSTAR PLUS (Becton-Dickinson) and analyzed with Cell Quest software. […]
(PI) for cell death or GFP and phycoerythrin (PE)-conjugated annexin V for early apoptosis. The percentage of cell death was quantified as those cells expressing GFP and either annexin V or 7-AAD staining relative to total GFP expressing cells. Experiments were performed in triplicate with 10,000 events counted. […]

JNK [5] = details: at 10 μM; cited from earlier work
DENN [6] = test: Western blot of endogenous DENN in stressed neuroblastoma cultures; type: cell-based, mouse; details: for DENN expression in cultures treated with oxidative stress factors: data not shown
Procedure: (§2) A) NSC19 and N2A cells were exposed to 0.1% BSA (Control) or 20 μM fibrillar Aβ(1-40) for 48 h. Cell extracts (100 μg) were immunoblotted with DENN antibody and reprobed with actin antibody. DENN reactive bands appear at ˜200 kD and ˜140 kD. DENN protein expression is higher in NSC19 relative to N2A cells. Aβ exposure dramatically reduces DENN protein expression. Similar results were obtained in three independent experiments. B) Total RNA from Control and Aβ exposed N2A cultures was extracted and RT-PCR using either DENN or actin specific primers was performed. […] Results are representative of three independent experiments. C) Primary rat hippocampal neurons were exposed to 25 μM Aβ(1-42) for 24 h, fixed in 4% PFA and stained with antibodies specific for DENN, phospho-JNK (P-JNK) and counterstained with Hoechst 33342 for nuclei.
NSC 19 cells were harvested after the appropriate treatments by scraping into cold PBS and centrifuging at 1500 ×g for 5 min at 4° C. Cells were then lysed in buffer A (20 mM Tris-Cl, pH 7.5, 1% Triton X-100, 0.5% NP-40, 0.1 M NaCl, 20 mM β-glycerophosphate, 2 mM EDTA, 2 mM sodium pyrophosphate, 10% glycerol, 10 μg/ml leupeptin and 2 mM phenylmethylsulfonyl fluoride) for 20 min on ice followed by four 5-second sonication bursts on ice. Lysates were centrifuged at 14,000 ×g for 10 min at 4° C. Protein concentrations were measured by the Bradford (1976) assay using bovine serum albumin (BSA) standards. Approximately 50 μg of cell lysates were mixed with 2Xsample buffer and boiled for 5 min. Samples were resolved by 10% SDS-polyacrylamide gel electrophoresis (PAGE), transferred to nitrocellulose membranes, blocked in 5% skim milk and 1% BSA in 1XTBS, and incubated overnight at 4° C. with primary antibody at indicated dilutions. Blots were then washed with TBS buffer containing 0.15% Tween 20 (washing buffer), incubated with a 1:1000 dilution of anti-mouse or anti-rabbit IgG-conjugated horseradish peroxidase for 1 h at room temperature, washed again and processed by ECL detection (Amersham). […]

NSC19 cells [7] = test: FACS cell death assay (GFP and PI positive cells) after Aβ(1-40) exposure; type: cell-based, mouse; details: GFP-expressing NSC19 cultures, Aβ for 48 h
Procedure: Lyophilized, HPLC purified β-amyloid, Aβ25-35, Aβ1-40 , Aβ1-42 and Aβ40-1 were obtained from either Sigma Chemical Co., U.S. Peptide (Fullerton, Calif.) or Bachem (Torrance, Calif.), respectively. Peptides were reconstituted in double-distilled H2O at 10 mM Aβ. To age the β-amyloid in vitro and produce aggregated, fibrillar Aβ, an aliquot of the Aβ stock solution was dissolved at the indicated concentration in culture medium and incubated at 37° C. for 3 to 5 days. Cells were incubated with the appropriate Aβ peptide concentration for the indicated times and examined for immunofluorescence or cell death assay.
Cells were analyzed by fluorescence-activated cell sorting (FACS) analysis on a FACSTAR PLUS (Becton-Dickinson) and analyzed with Cell Quest software. FACS analysis for two color analysis used GFP and either 7-amino-actinomycin (7-AAD) or propidium iodide
as §1
Neurotoxicity induced by Aβ(1-40) exposure was further examined using clonal cells expressing GFP-fused mutant forms of DENN. […]

DENN [8] = test: RT-PCR of DENN RNA in Aβ-exposed N2A cultures; type: cell-based, murine; details: N2A cells
Procedure: as §2
Total RNA was purified using the RNeasy miniprep kit (Qiagen) and resuspended in 50 μt RNase free water. For each RT-PCR, 1 μg RNA was subjected to One-Step RT-PCR using Omniscript and Sensiscript Reverse transcriptases, HotStarTaq DNA polymerase and 0.5 μM of DENN primers: sense, SEQ ID NO: 6: 5′-[…]-3′ and antisense, SEQ ID NO: 1: 5′-[…]-3′, for 30 cycles with the following conditions: 94° C., 30 s; 60° C., 1 min; 72° C., 1 min. Human and murine actin prim were supplied by Clontech.
RNA expression was compared in N2A cells (FIG. 6B).

## CCSCc1ccc2c(c1)c1c3c(c4c5cc(CSCC)ccc5n5c4c1n2[C@H]1C[C@](O)(C(=O)OC)[C@]5(C)O1)CNC3=O [CEP1347]
JNK3
  JNK3 activation: inhibit JNK3 activation
[1]
  concentration required for inhibition of Aβ-induced cell death: less than 300 nM

## CCSCc1ccc2c(c1)c1c3c(c4c5cc(CSCC)ccc5n5c4c1n2C1C[C@](O)(C(=O)OC)[C@]5(C)O1)CNC3=O [CEP11004]
JNK [2]
  JNK activity (c-Jun phosphorylation): four-fold; also recorded: inhibits Aβ-induced c-Jun phosphorylation
[3]; CEP11004, DENN-AS treated hippocampal cultures
  effect on DENN AS-induced cell death: little effect
[3]
  Aβ-induced cell death (TUNEL positive cells): abrogated
[3]; listed as CEP1004
  Aβ-induced cell death (TUNEL positive cells): inhibits effect of Aβ-induced cell death

## C[S+]([O-])c1ccc(-c2nc(-c3ccc(F)cc3)c(-c3ccncc3)[nH]2)cc1 (centres unmarked) [SB203580, 4-(4-fluorophenyl)-2-(4-methylsulfinylphenyl)-5-(4-pyridyl)-1H-imidazole]
NSC19 cells [4]; NSC19 DENN-JBD transfectants, p<0.05
  cell death/apoptosis in DENN-JBD transfected cells with Aβ/SB203580 co-treatment: reproducible increase in cell death; also recorded: slight increase in apoptosis
NSC19 cells [4]; NSC19 cells overexpressing DENN or DENN-CT, p<0.01
  apoptotic response (GFP and annexin V positive cells) to Aβ in cells overexpressing DENN or DENN-CT: significantly attenuated apoptotic response; also recorded: decreased
JNK [5]
  JNK activity inhibition: JNK activity is also inhibited

## N[C@@H](CCC(=O)O)C(=O)O [glutamate]
DENN [6]
  DENN expression in cultures treated with oxidative stress factors: reduction in DENN expression

## OO [hydrogen peroxide]
DENN [6]
  DENN expression in cultures treated with oxidative stress factors: reduction in DENN expression

## Aβ(1-40): β-amyloid peptide 1-40, aged in vitro to aggregated, fibrillar form
NSC19 cells [7]
  increase in cell death after Aβ exposure: five-fold

## Aβ: β-amyloid peptide; per FIG. 6 legend 20 μM fibrillar Aβ(1-40)
DENN [8]
  reduction in DENN RNA expression (RT-PCR): four-fold
DENN [6]; NSC19 and N2A cells, 20 μM fibrillar Aβ(1-40), 48 h
  reduction of endogenous DENN protein: approximately 3 fold
